Measurements taken from patent US10669239B2, “Tetrahydronaphthyl urea derivative” (MOCHIDA PHARMACEUTICAL CO., LTD., priority 2017, dated 2020).

Target: human TrkA protein (Homo sapiens (Human), UniProt P04629)
Experiment: TrkA LanthaScreen Eu Kinase Binding Assay (binding activity for human TrkA protein)
Conditions: TrkA enzyme, Kinase Tracer 236, TR-FRET, 60 minutes at room temperature
Method: (Pharmacological Experimental Example 1): Evaluation of Binding Activity for Human TrkA Protein
Measurement was carried out using TrkA LanthaScreen (registered trademark) Eu Kinase Binding Assay (ThermoFisher SCIENTIFIC). To a 384 well plate (Corning), 2.5 μL of the test compound having various concentrations and diluted with Kinase buffer (ThermoFisher SCIENTIFIC) and 2.5 μL of 15 nM TrkA enzyme (ThermoFisher SCIENTIFIC) were added. Moreover, 5 μL of 3 nM Eu-anti-His Tag antibody (ThermoFisher SCIENTIFIC) and 5 μL of 30 nM Kinase (registered trademark) Tracer 236 (ThermoFisher SCIENTIFIC) were added, followed by reaction at room temperature for 60 minutes. After the reaction, the fluorescence intensity of Europium (Emission wavelength 615 nm) and TR-FRET (Emission wavelength 665 nm) with an excitation wavelength of 340 nm were measured with EnVision 2100 (PerkinElmer) to calculate the fluorescence ratio as the amount of the test compound and the TrkA enzyme bonded. The inhibitory activity (IC50 value) of each test compound was calculated with the fluorescence ratio of the well to which a solvent was added instead of the test compound being 0% and the fluorescence ratio of the well without addition of the TrkA protein being 100%.
In Table 1, Compounds 1 to 62 respectively mean Compounds 1 to 62 synthesized in accordance with Examples 1 to 62 described later.

Sequence of human TrkA protein (P04629 33-796): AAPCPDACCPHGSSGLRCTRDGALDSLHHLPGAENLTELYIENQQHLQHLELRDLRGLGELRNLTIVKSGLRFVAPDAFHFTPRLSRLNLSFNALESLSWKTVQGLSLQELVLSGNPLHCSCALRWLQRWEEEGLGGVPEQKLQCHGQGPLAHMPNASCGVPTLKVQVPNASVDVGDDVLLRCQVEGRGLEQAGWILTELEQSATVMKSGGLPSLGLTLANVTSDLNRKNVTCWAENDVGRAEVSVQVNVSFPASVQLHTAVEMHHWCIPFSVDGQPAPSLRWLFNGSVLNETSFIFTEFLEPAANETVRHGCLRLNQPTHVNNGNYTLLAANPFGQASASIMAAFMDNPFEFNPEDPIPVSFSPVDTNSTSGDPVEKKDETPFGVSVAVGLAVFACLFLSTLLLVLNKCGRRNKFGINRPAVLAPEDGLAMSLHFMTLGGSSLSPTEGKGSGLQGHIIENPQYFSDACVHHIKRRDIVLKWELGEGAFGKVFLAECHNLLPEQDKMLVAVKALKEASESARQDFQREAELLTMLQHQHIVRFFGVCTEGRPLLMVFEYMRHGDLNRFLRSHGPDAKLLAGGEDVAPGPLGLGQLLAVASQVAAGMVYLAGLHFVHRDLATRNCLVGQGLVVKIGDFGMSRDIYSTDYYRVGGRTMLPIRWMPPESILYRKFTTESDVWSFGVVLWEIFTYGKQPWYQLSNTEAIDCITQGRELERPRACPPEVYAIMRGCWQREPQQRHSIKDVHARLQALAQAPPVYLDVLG

IC50: ≤ 50 nM
Structure (SMILES): Cc1cc(NC(=O)N[C@@H]2c3cc(F)c(F)cc3C(C)(C)C[C@H]2O)c(-c2ccccc2)nc1-c1ccnc(CO)c1 (racemic) [Compound 56, rac-1-((1R,2R)-6,7-difluoro-2-hydroxy-4,4-dimethyl-1,2,3,4-tetrahydronaphthalen-1-yl)-3-(2′-(hydroxymethyl)-3-methyl-6-phenyl-[2,4′-bipyridin]-5-yl)urea]
